Measured values from a melting point compilation (Tetko et al.; mined from patent text by program, amines drawn as free bases though some values may be those of a salt).

melting point [°C] | Structure (SMILES)
228 to 230 | O=C1CCC(N2Cc3c(CNC(=O)c4ccccc4)cccc3C2=O)C(=O)N1 (configuration not stated)
171 to 173 | COC(=O)C(O)=CC(=O)c1cn(Cc2ccc(F)cc2)c(=O)n(Cc2ccc(F)cc2)c1=O
294 to 295 | Cn1nc(-c2cnc3[nH]cc(C(=O)NCC(C)(C)C)c3n2)c2ccc(F)cc21
170 to 172 | CN1C(=O)c2ccccc2C(C(=O)O)C1c1ccc(OCc2ccccc2)c(OCc2ccccc2)c1 (configuration not stated)
197 to 200 | Cn1cnc(=S)c(-c2cccc(C(F)(F)F)c2)c1
62 to 64 | CCc1nccc(N(C(=O)Cc2ccc(Oc3ccc(C(F)(F)F)cn3)cc2)C(=O)OC)c1Cl
112 | O=C(O)Cc1cccc(C(=O)c2cccs2)c1Cl
196 to 200 | C[C@@H](NC(=O)c1c[nH]c2ncc(-c3nn(C)c4cc(Cl)cc(Cl)c34)nc12)C(=O)N1CC(C#N)C1
134 to 137 | CC(C)c1cc(S(C)(=O)=O)c(C(C)C)cc1C#N
157 | COc1ccc2c(C(=O)Nc3ccc(F)c(C(F)(F)F)c3)nsc2c1
136 to 137 | CCOC=C(C=C(C#N)C#N)CCc1ccc(C(=O)OC)cc1
102 to 105 | CC1OC(O)CC(O)C1O (configuration not stated)
164 | CC(O)(Cc1cnc(Cl)s1)c1ccc(Cl)cc1Cl (configuration not stated)
71.5 to 72 | COC(=O)CCC#CCCC(=O)O
> 300 | CN(c1nc(-c2cc3ccccc3[nH]c2=O)cs1)S(=O)(=O)c1cn(C)cn1
38 to 40 | O=C=NC1(N=NC2(N=C=O)CCCCC2)CCCCC1
87 to 89 | CN(C)c1ccc(C2(CN)CCCC2)cc1
51 to 53 | CCC(C)(C)c1cccc(NC=O)c1C
30 | COC(=O)c1nccnc1Cl
67 to 70 | Oc1ccccc1C1OCCO1
158 | CC(=S)NC[C@H]1CN(c2ccc(N3CCOCC3)c(F)c2)C(=O)O1
125 to 127 | C=C1c2ccc(OC)cc2CC(=NO)c2ccccc21
116 to 117 | O=C1C=C(c2ccc(C(F)(F)F)cc2C(F)(F)F)CO1
67 to 70 | CC1(COc2cccc(Br)c2)COC(C)(C)OC1
126 to 128 | Cc1c(Br)sc2cc(C(=O)CBr)ccc12

melting point [°C] | Structure (SMILES)
208 to 212 | COc1c(N2CCC(N)C2)c(F)cc2c(=O)c(C(=O)O)cn(C3CC3)c12 (configuration not stated)
260 to 264 | Nc1ncnc2nc(-c3cccc(Cl)c3)cnc12
110 to 111 | COC(=O)C(=O)c1ccc(S(=O)(=O)CCOc2ccc3ccccc3c2)cc1
67 to 68 | CCCCCCCCCCCCCCCOc1ccc(C(C)=O)o1
90 to 92 | O=C(O)CCc1cccc(Oc2ccccc2Cl)c1O
189 | O=Cc1ccc(C(=O)Nc2nccs2)cc1
63 to 64 | CCC(Oc1cccc(OC)c1)C(=O)NCc1ccccc1 (configuration not stated)
195 to 198 | O=C1CCCN1C1=NC(CF)(CF)Oc2ccc([N+](=O)[O-])cc21
96 to 96.5 | O=Cc1cc2ccsc2c2ccccc12
152 to 154 | CCC1(C)CN(c2c(F)cc3c(=O)c(C(=O)O)cn(C4CC4)c3c2OC)CCC1N (configuration not stated)
145 to 155 | N#CC(c1ccccc1)c1cc(Oc2cc(Cl)cc(Cl)c2)c2c(=O)c3ccccc3sc2c1 (configuration not stated)
69 to 70 | COc1cc(C=O)cc(OC)c1OCCO
109 to 110 | CCOC(=O)CCCOc1ccc(C2=NNC(=O)CC2)cc1Cl
220 | O=c1[nH]c(C(F)(F)F)nc2ccccc12
173 to 174 | CC(=O)Oc1ccc(C(=O)O)cc1I
50 to 56 | O=C(Cc1ccc(F)cc1)c1ccc(OC(F)F)cc1
180 to 181 | CN1CC2=C(n3cnc(C#CC(C)(C)O)c3C1)S(=O)C=C2 (configuration not stated)
178 to 180 | CSCCCc1cc(F)c2ncc(C(=O)NCc3ccc(Cl)cc3)c(O)c2c1
77 to 79 | C=C1C2CCC(=O)C23CCC(C3)C1(C)C (configuration not stated)
129 to 130 | Cn1nc(-c2c(F)cccc2Cl)nc1-c1sc(Cl)c(Cl)c1Cl
198 to 199 | COC(=O)c1cccc(Cn2c(C(=O)NC(N)=S)cc3cc(C)cc(C)c32)c1
91 to 94 | CC(=O)OC1(N=NC2(OC(C)=O)CCCCC2)CCCCC1
> 270 | NC(=O)c1cnc(C(N)=O)cn1
71 to 72 | COc1cc(CO)c(OC)c(C)c1C
> 300 | COc1ccc2c(c1)N(CC(=O)O)C(=O)C(N)CC2 (configuration not stated)

melting point [°C] | Structure (SMILES)
110 to 112 | Cc1cccc(-c2n[nH]cc2-c2ccc(F)c(-c3cn[nH]c3)c2)n1
178 | Nc1nc(O)c2c(n1)NCC(CN(C=O)Cc1ccc(C(=O)N[C@@H](CCC(=O)O)C(=O)O)cc1)C2 (some centres not stated)
156 | Cc1nc(-c2ccc(C(F)(F)F)cc2)oc1COc1ccc(OCc2nn[nH]n2)cc1
167 | O=C1CCC(c2ccccc2)(c2ccccc2)[C@@H]2CN(C(=O)Cc3ccccc3N3CCOCC3)C[C@H]12 (racemic)
132 to 135 | O=C(OC(c1ccc(Cl)cc1Cl)C(Oc1ccc(Cl)cc1)n1cncn1)c1ccc(Cl)cc1Cl (configuration not stated)
223 | O=C(CN1CCN(c2cnccn2)CC1)N1CCC(CO)(c2cccc(C(F)(F)F)c2)CC1
176 | Cc1cc(O)c(SC23CC4CC(CC(C4)C2)C3)c(=O)o1
192 to 193 | COC1(O)C=C(O)C(C(O)C(=O)c2ccccc2)=CC1 (configuration not stated)
145 to 148 | COC(=O)c1ccc(-c2cccc(N)c2)cc1
85 to 87 | CCCN1CCO[C@@H]2c3cc(C(=O)N(C)C)ccc3CC[C@H]21 (relative stereo)
131 to 132 | COc1ccc(-c2c(Cl)c(CNC3CC3)nc3sc4c(c23)CCN(Cc2ccccc2)C4)cc1OC
92 to 93 | N#Cc1ncccc1Oc1cccc(F)c1
179 to 180 | O=C(Nc1cccc(S(=O)(=O)C(F)(F)F)c1)c1c(O)ccc2ccccc12
123 to 124 | CCn1nc(C(F)(F)F)c(CS(=O)(=O)C2=NOC(C)(CCl)C2)c1Cl (configuration not stated)
71 to 73 | CCCCn1c(=O)c2c(ncn2S(=O)(=O)CCCCl)n(CCCC)c1=O
210 | CCn1c(N)c(C(=O)NC)c(=O)c2ccc(-c3ccc(NS(=O)(=O)c4cccc(Cl)c4Cl)cc3)nc21
215 to 216 | COc1cc2c(cc1OC)C(Cc1cc(I)c(I)c(I)c1)N(C(=O)C(F)(F)F)CC2 (configuration not stated)
122 to 124 | CCCn1cc(Cc2ccc(C(=O)OC)cc2OC)c2cc(C=CCC(=O)N(C)C)ccc21
168 | COc1ccc(Br)cc1S(=O)(=O)NC(C)(C)CO
192 to 194 | CC(C)COc1ccc(-n2cc(C(=O)O)cn2)cc1C#N
148 to 150 | O=C(O)C=CC=CCS(=O)(=O)c1ccccc1
124 to 126 | NC(=O)C(c1ccccc1Cl)N1CCc2sccc2C1 (configuration not stated)
92 | CCOC(=O)C(C)Oc1ccc(N(C)c2ncnc3cc(Cl)ccc23)cc1 (configuration not stated)
170 | O=S(=O)(Nc1cccc(C(=NO)c2cccnc2)c1)c1ccc(Cl)cc1
225 to 226 | Cc1oc(-c2ccccc2)nc1COc1ccc(C=C2SC(=O)NC2=O)cc1

melting point [°C] | Structure (SMILES)
147 to 158 | CC(=O)OC1CSC(Oc2ccc3ccn(C(=O)OC(C)(C)C)c3c2)C(OC(C)=O)C1OC(C)=O (configuration not stated)
125 | O=P(Cc1ccc(O)cc1)(c1ccccc1)c1ccccc1
240 to 242 | Cc1coc2ncnc(N)c12
126 to 128 | c1ccc(OCC2CCN(CCCOc3cccc4[nH]c5ccccc5c34)CC2)cc1
139 to 140 | COc1cc(COc2nn(Cc3ccccc3)cc2C=O)ccc1OCc1nc(-c2ccco2)oc1C
95 to 96 | CCOC(=O)c1ccc(C)c(Nc2nccc(-c3cccnc3)n2)c1
99 to 100 | CC1=C(C)[C@]23OC[C@](C)(CCC2=C(C)C1=O)O3
90 to 93 | COC(=O)C1=C(C)NC(C)=C(C(=O)OCCN2CCN(C(c3ccc(F)cc3)c3ccc(F)cc3)CC2)C1c1cccc(Cl)c1Cl (configuration not stated)
102 | Cc1ccc(-c2nccc3c(CC#N)cccc23)cc1
151 to 152 | CCC(=O)Nc1c([N+](=O)[O-])c(C(C)(C)C)nn1-c1c(Cl)cc(C(F)(F)F)cc1Cl
115 to 118 | CCCCCCCCCCCCCC(=O)Nc1ccc(Cl)c(NC(=CC(=O)OCC)OCC)c1
98 | CC(C)(C)OC(=O)COC[C@@H]1C[C@@H](SC(c2ccccc2)(c2ccccc2)c2ccccc2)CN1S(C)(=O)=O
270 to 272 | CN(Cc1ccc(NC(=O)C2=Cc3cc(-c4ccc(C(F)(F)F)cc4)ccc3S(=O)(=O)CC2)cc1)C1CCOCC1
251 to 253 | CCOC(=O)C1CCN(C(=O)CCCOc2ccc3nc4[nH]c(=O)[nH]c4cc3c2)CC1
199 to 205 | CNc1nc(-c2ccc(SC)cc2)n(-c2ccc(C)c(C)c2)c(=O)c1C#N
141 to 143 | CN(C)CC1CCc2cc(NC(=O)c3ccc(Br)cc3)ccc2C1 (configuration not stated)
160 | O=C(NCC(=O)N1[C@@H](c2ccccc2O)CC[C@H]1c1ccccc1)Nc1cccc(C(=O)O)c1 (racemic)
48 to 51 | CCOP(=O)(O)Cc1cccc(C(F)(F)F)c1
217 | CC1(C)CC(O)=CC2(C1)NCC(c1cccc(O)c1)O2 (configuration not stated)
90 to 92 | CN(C)CCCN(c1ccccc1)c1ncccc1NC(=O)c1ccccc1Cl
70 | CC(C)(C)C(=O)C(Br)Oc1ccc(Cl)cc1Cl (configuration not stated)
155 to 160 | COc1ccc2c(c1C=O)Nc1ccccc1S2
143 to 144 | COc1cc2c3ccc(OC)c(OC)c3n(Cc3ccc(Br)cc3)c2cc1OC
96 to 97 | CC(=O)OC(c1ccccc1)C1CNC1=O (configuration not stated)

Structure (SMILES) | melting point [°C]
CC(C)N1C(=O)C(C)(C)N=C(c2ccccc2Cl)c2cc([N+](=O)[O-])ccc21 | 169 to 170
Cc1cc(C2=NOC(c3cc(Cl)cc(Cl)c3)(C(F)(F)F)C2)ccc1C(=O)Nc1cncnc1 (configuration not stated) | 207 to 211
Cc1cccc2[nH]c(=O)n(CCCN3CC=C(c4cccc(C(F)(F)F)c4)CC3)c(=O)c12 | 158 to 160
